Laboratory results published in PMC5988656, “Phase I studies of AZD1208, a proviral integration Moloney virus kinase inhibitor in solid and haematological cancers” (British Journal of Cancer, 2018).
Several values for one entry are separate records, joined by “and”; a condition that tells them apart may be missing. Identical values can stand only once.

How the values were obtained:
[1] = AML dose-escalation study: pharmacokinetics (plasma, urine); format: in vivo, human; details: for Gmean plasma concentration of AZD1208 (± SD): Cycle 1, Day 14
Experimental: The schedules for collection of blood and urine samples for PK analyses in each cohort in both studies are described in Supplementary Table 1. When necessary for clinical response assessment in the AML study, a bone marrow sample for PK analysis was collected at Cycle 1, Day 28.
The concentration of AZD1208 in plasma and urine was determined by Covance, on behalf of Clinical Bioanalysis Alliance at AstraZeneca R&D, using a bioanalytical method. A volume of 0.05 ml of K2EDTA human plasma sample was extracted by liquid–liquid extraction using 0.7 ml of methyl tert-butyl ether. Approximately 100 µl of the supernatant was transferred, evaporated to dryness and reconstituted with 350 µl of 1:1 methanol:water, and a 5 µl injection was made to the high-performance liquid chromatography (HPLC) column. HPLC separations were performed on a Phenomenex LUNA C18 (50 × 2 mm, 5 µm) column using a mobile phase of 0.1% formic acid in water (A) and 0.1% formic acid in acetonitrile (B) at a flow rate of 0.6 ml/min and a column temperature of 40 °C. AZD1208-D5 was used as the internal standard. Detection was performed in a Sciex API4000 mass spectrometer, in a positive electrospray ionisation mode, using multiple reaction monitoring detection (AZD1208: 380.0–>248.1; AZD1208-D5: 385.0–>253.1).

CYP3A4 = CYP3A4 activity assessed by 4-β-hydroxycholesterol levels, solid tumour study; format: in vivo, human; details: for 4-β-hydroxycholesterol Day 15 concentration / 4-β-hydroxycholesterol ratio (Day 15/Day 1): individual subjects
Experimental: In the solid tumour study, blood samples for 4β-hydroxycholesterol analysis were collected pre-dose at Cycle 0, Day 1; Cycle 1 (Day 8 and 15); and Cycle 2, Day 15.
The activity of CYP3A4 was assessed by analysing 4-β-hydroxycholesterol levels in samples collected from five patients at AZD1208 doses of 700 or 800 mg.

For `N[C@@H]1CCCN(c2c(/C=C3\SC(=O)NC3=O)cccc2-c2ccccc2)C1` [AZD1208], the “Gmean plasma concentration of AZD1208 (± SD)” value ([1]; 1 h post-dose, 120 mg, n=3) was 2050.2 (1514.6, 2775.2) ng ml, the “Gmean plasma concentration of AZD1208 (± SD)” value ([1]; 1 h post-dose, 480 mg, n=6) was 4956.2 (1164.7, 21 090.8) ng ml and the “Gmean plasma concentration of AZD1208 (± SD)” value ([1]; 1 h post-dose, 700 mg, n=7) was 2013.8 (1004.8, 4035.8) ng ml. For the same compound, the “Gmean plasma concentration of AZD1208 (± SD)” value ([1]; 1 h post-dose, 900 mg, n=9) was 1952.5 (1166.1, 3269.1) ng ml, the “Gmean plasma concentration of AZD1208 (± SD)” value ([1]; 1.5 h post-dose, 120 mg, n=3) was 2375.1 (1849.1, 3050.7) ng ml and the “Gmean plasma concentration of AZD1208 (± SD)” value ([1]; 1.5 h post-dose, 240 mg, n=6) was 5142.8 (4058.6, 6516.6) ng ml. For the same compound, the “Gmean plasma concentration of AZD1208 (± SD)” value ([1]; 1.5 h post-dose, 480 mg, n=6) was 5384.2 (2123.1, 13 654.8) ng ml, the “Gmean plasma concentration of AZD1208 (± SD)” value ([1]; 1.5 h post-dose, 700 mg, n=7) was 3963.7 (2236.9, 7023.5) ng ml and the “Gmean plasma concentration of AZD1208 (± SD)” value ([1]; 1.5 h post-dose, 900 mg, n=9) was 2747.1 (1719.7, 4388.3) ng ml. For the same compound, the “Gmean plasma concentration of AZD1208 (± SD)” value ([1]; 2 h post-dose, 120 mg, n=3) was 2216.3 (1388.5, 3537.7) ng ml, the “Gmean plasma concentration of AZD1208 (± SD)” value ([1]; 2 h post-dose, 240 mg, n=6) was 6153.8 (5277.1, 7175.8) ng ml and the “Gmean plasma concentration of AZD1208 (± SD)” value ([1]; 2 h post-dose, 480 mg, n=6) was 5818.8 (2320.7, 14 589.5) ng ml. The “Gmean plasma concentration of AZD1208 (± SD)” value ([1]; 2 h post-dose, 700 mg, n=7) was 4388.1 (2945.6, 6536.9) ng ml, the “Gmean plasma concentration of AZD1208 (± SD)” value ([1]; 2 h post-dose, 900 mg, n=9) was 3107.5 (1803.0, 5356.1) ng ml and the “Gmean plasma concentration of AZD1208 (± SD)” value ([1]; 3 h post-dose, 120 mg, n=3) was 2052.0 (1181.0, 3565.2) ng ml. For the same compound, the “Gmean plasma concentration of AZD1208 (± SD)” value ([1]; 3 h post-dose, 240 mg, n=6) was 3687.8 (1657.8, 8203.5) ng ml, the “Gmean plasma concentration of AZD1208 (± SD)” value ([1]; 3 h post-dose, 480 mg, n=6) was 5515.9 (1885.1, 16 139.7) ng ml and the “Gmean plasma concentration of AZD1208 (± SD)” value ([1]; 3 h post-dose, 700 mg, n=7) was 5521.1 (2560.5, 11 905.2) ng ml. The “Gmean plasma concentration of AZD1208 (± SD)” value ([1]; 3 h post-dose, 900 mg, n=9) was 3179.0 (1505.2, 6714.4) ng ml, the “Gmean plasma concentration of AZD1208 (± SD)” value ([1]; 6 h post-dose, 120 mg, n=3) was 1761.5 (1019.2, 3044.5) ng ml and the “Gmean plasma concentration of AZD1208 (± SD)” value ([1]; 6 h post-dose, 240 mg, n=6) was 3196.3 (1504.2, 6791.5) ng ml. For the same compound, the “Gmean plasma concentration of AZD1208 (± SD)” value ([1]; 6 h post-dose, 480 mg, n=6) was 5420.2 (1806.5, 16 262.9) ng ml, the “Gmean plasma concentration of AZD1208 (± SD)” value ([1]; 6 h post-dose, 700 mg, n=7) was 4452.1 (2126.6, 9320.8) ng ml and the “Gmean plasma concentration of AZD1208 (± SD)” value ([1]; 6 h post-dose, 900 mg, n=9) was 2320.5 (896.7, 6004.8) ng ml. For the same compound, the “Gmean plasma concentration of AZD1208 (± SD)” value ([1]; 8 h post-dose, 120 mg, n=3) was 1700.4 (974.4, 2967.5) ng ml, the “Gmean plasma concentration of AZD1208 (± SD)” value ([1]; 8 h post-dose, 240 mg, n=6) was 2735.5 (1203.4, 6218.4) ng ml and the “Gmean plasma concentration of AZD1208 (± SD)” value ([1]; 8 h post-dose, 480 mg, n=6) was 5248.1 (1804.2, 15 265.9) ng ml. The “Gmean plasma concentration of AZD1208 (± SD)” value ([1]; 8 h post-dose, 700 mg, n=7) was 4064.8 (2043.6, 8085.1) ng ml, the “Gmean plasma concentration of AZD1208 (± SD)” value ([1]; 8 h post-dose, 900 mg, n=9) was 2608.4 (2223.6, 3059.7) ng ml and the “Gmean plasma concentration of AZD1208 (± SD)” value ([1]; 24 h post-dose, 120 mg, n=3) was 1248.3 (485.6, 3208.8) ng ml. The “Gmean plasma concentration of AZD1208 (± SD)” value ([1]; 24 h post-dose, 240 mg, n=6) was 1818.9 (580.7, 5697.5) ng ml, the “Gmean plasma concentration of AZD1208 (± SD)” value ([1]; 24 h post-dose, 480 mg, n=6) was 3154.5 (406.4, 24 485.6) ng ml and the “Gmean plasma concentration of AZD1208 (± SD)” value ([1]; 24 h post-dose, 700 mg, n=7) was 2302.0 (643.6, 8233.0) ng ml. For the same compound, the “Gmean plasma concentration of AZD1208 (± SD)” value ([1]; 24 h post-dose, 900 mg, n=9) was 593.0 (174.0, 2021.0) ng ml, the “Gmean plasma concentration of AZD1208 (± SD)” value ([1]; pre-dose, 120 mg, n=3) was 1163.1 (335.5, 4032.0) ng ml and the “Gmean plasma concentration of AZD1208 (± SD)” value ([1]; pre-dose, 240 mg, n=6) was 2106.9 (693.2, 6845.2) ng ml. The “Gmean plasma concentration of AZD1208 (± SD)” value ([1]; pre-dose, 480 mg, n=6) was 2302.9 (541.6, 9792.3) ng ml, the “Gmean plasma concentration of AZD1208 (± SD)” value ([1]; pre-dose, 700 mg, n=7) was 2513.6 (1057.2, 5976.4) ng ml and the “Gmean plasma concentration of AZD1208 (± SD)” value ([1]; pre-dose, 900 mg, n=9) was 463.1 (444.2, 482.7) ng ml. For the same compound, the “Patients with marked accumulation (>3-fold)” value ([1]; across the doses, 7/16 patients) was 44%, the “Median time to maximum plasma concentration (Tmax)” value ([1]; after a single dose) was ~ 3 h and the “Differences in AZD1208 concentrations between individuals within the same cohort” value ([1]; after multiple doses) was “up to 10 fold”. The “Dose proportionality of Cmax and AUC0–24” value ([1]; following multiple doses) was “less than dose proportional”, the Accumulation ratio ([1]; individual patients at 480 mg) was 3.6 and 0.36 and the “Administered dose eliminated unchanged in urine” value ([1]; within 24 h, all cohorts) was less than 1%. The “Increase in 4-β-hydroxycholesterol levels on Day 15 compared with Day 1” value (CYP3A4; five patients, 700 or 800 mg) was ~ 4 fold, the “4-β-hydroxycholesterol Day 15 concentration, Gmean (CV%)” value (CYP3A4; five subjects, 700 or 800 mg) was 114.1 (29.2) ng ml and the “4-β-hydroxycholesterol ratio (Day 15/Day 1), Gmean (CV%)” value (CYP3A4; five subjects, 700 or 800 mg) was 4.38 (23.9). The “4-β-hydroxycholesterol Day 15 concentration” value (CYP3A4; dose 700 mg) was 85.5 ng·mL and 91.9 ng·mL and 175 ng·mL, the “4-β-hydroxycholesterol ratio (Day 15/Day 1)” value (CYP3A4; dose 700 mg) was 3.41 and 5.93 and 4.90 and the “4-β-hydroxycholesterol Day 15 concentration” value (CYP3A4; dose 800 mg) was 128 ng·mL and 110 ng·mL. The “4-β-hydroxycholesterol ratio (Day 15/Day 1)” value (CYP3A4; dose 800 mg) was 4.67 and 3.49 and the CYP3A4 activity (CYP3A4; multiple dosing, 700 or 800 mg) was “induced”.
